These results are taken from patent publication US9751875B2, “Quinine compounds, and optical isomers, preparation method and medical use thereof” (BEIJING FSWELCOME TECHNOLOGY DEVELOPMENT CO., LTD., priority 2013, dated 2017).

Like-named read-outs stand apart in the source and are kept apart here.

For assay [1], the system named is tracheal smooth muscle from guinea pigs (contraction induced by 3 × 10^−6 mol/L of CCh). Briefly: Antagonism in vitro of contraction of isolated tracheal smooth muscle from guinea pigs induced by carbachol (CCh). In kind it is cell-based, guinea pig.
Assay [2] shares this test system. The description is as above. The assay is classed as cell-based, guinea pig. The source says: Preparation of the Isolated Tracheal Smooth Muscle Specimen from a Guinea Pig:
After a guinea pig was narcotized with urethane, the trachea between the throat and carina of the guinea pig was taken out rapidly, and placed in the Krebs-Henseleit (K-H) solution (composition (g/L): NaCl 6.92, KCl 0.35, CaCl2 0.28, KH2PO4 0.16, MgSO4.7H2O 0.4568, NaHCO3 2.1, Glucose 2.0) with a mixture gas of 5% CO2 and 95% O2 purged. After loose connective tissues and fats around the trachea were separated, the trachea was cut into trachea pieces having a width of about 3 mm and a length of 20 mm by a surgical scissor, with both ends of the trachea piece ligated with 4˜0 silk suture, and then placed into a thermostatic bath containing 5 ml of K—H solution (pH 7.4) at 37° C., with the mixture gas of 5% CO2 and 95% O2 continuously purged. A muscle tension transducer was connected to the upper end so as to apply 1.0 g of resting tension to the specimen, the change of the tension was recorded, the culture solution was replaced every 20 min, and the test was started after being balanced for 60 min.
Administration method: After the trachea piece was stabilized, 3×10^−6 mol/L of CCh was added into a bath, and after the contractile tension of the trachea piece reached a peak level, the example compounds, ipratropium bromide and tiotropium bromide were added into a Magnus bath by a cumulative dosing regimen with a dosage of 10^−9˜10^−5 mol, respectively, and the diastolic condition of the trachea piece was observed: if no response occurred (below the threshold concentration), a next dosage was continued to be added in sequence; if response occurred, after it reached a diastolic plateau, a next dosage was further added. The above operation was repeated until the contractile curve reached the minimum value. Finally, 10^−6 mol/L of isoprenaline was added so that the maximum relaxation would be reached and the curve was recorded.
Statistical approach: The result was expressed as mean ±standard deviation, and counted by Sigma Stat statistical package. The data was analyzed by using variance analysis, the comparison among means of a plurality of specimen was performed by using Student-Newman-Keuls(SNK) test; statistical significant level α=0.05 (bilateral).
Compounds shown in Table 5 were further prepared according to the present invention, and their IC50 […] of resistance to the contraction of tracheal smooth muscle from guinea pigs induced by a concentration of 3×10^−6 mol/L of CCh was determined.
The source holds these as a separate data set.

The mark [3] stands for this setting: read-out: IC50 (μM), antagonism in vitro against the contraction of the tracheal smooth muscle induced by CCh, 3 × 10^−6 mol/L of CCh, cumulative dosing.
Where [4] appears, read: Cavia porcellus, read-out: IC50 (μM), antagonism in vitro against the contraction of the tracheal smooth muscle induced by CCh, 3 × 10^−6 mol/L of CCh, cumulative dosing.
Setting [5] is: Cavia porcellus, 3 × 10^−6 mol/L of CCh, cumulative dosing, read-out: IC50 (μM), antagonism in vitro against the contraction of the tracheal smooth muscle induced by CCh.
[6] abbreviates: 3 × 10^−6 mol/L of CCh, cumulative dosing, read-out: IC50 (μM), antagonism in vitro against the contraction of the tracheal smooth muscle induced by CCh.
Where [7] appears, read: Cavia porcellus, read-out: Resistance to the contraction of smooth muscle from guinea pigs in vitro, IC50 (μM), 3 × 10^−6 mol/L of CCh, Table 5.
Where [8] appears, read: Cavia porcellus, 3 × 10^−6 mol/L of CCh, Table 5, read-out: Resistance to the contraction of smooth muscle from guinea pigs in vitro, IC50.

For the compound `OC(CO[C@H]1C[N+]2(CCCOc3ccccc3)CCC1CC2)(c1ccccc1)C1CCCC1.[Br-]` (stereo partly drawn) [Example 2, (2S,3S)-3-[(2-cyclopentyl-2-hydroxyl-2-phenyl)ethoxyl]-1-(3-phenoxypropyl)-1-azabicyclo[2,2,2]octane bromide], in assay [1], the “Onset time” value is recorded as 6.53 min and the “Time for eliminating inhibition effect (min)” value is “more than 300 min”. In addition, in assay [2] (setting [3]), the IC50 was 2.85 µM.

For `OC(CO[C@@H]1C[N+]2(CCCOc3ccccc3)CCC1CC2)(c1ccccc1)C1CCCC1.[Br-]` (stereo partly drawn) [Example 3, (2S,3R)-3-[(2-cyclopentyl-2-hydroxyl-2-phenyl)ethoxyl]-1-(3-phenoxypropyl)-1-azabicyclo[2,2,2]octane bromide], in assay [1], the “Onset time” value was 6.54 min and the “Time for eliminating inhibition effect (min)” value is “more than 300 min”. Moreover, in assay [2] (setting [3]), the IC50 was determined as 0.852 µM. For the compound `OC(CO[C@H]1C[N+]2(CCCOc3ccccc3)CCC1CC2)(c1ccccc1)C1CCCCC1.[Br-]` (stereo partly drawn) [Example 7, (2R,3S)-3-[(2-cyclohexyl-2-hydroxyl-2-phenyl)ethoxyl]-1-(3-phenoxypropyl)-1-azabicyclo[2,2,2]octane bromide], in assay [1], the “Onset time” value stood at 6.56 min and the “Time for eliminating inhibition effect (min)” value was “more than 300 min”. Besides, the IC50 in assay [2] (setting [4]) was determined as 0.791 µM. For the compound `O[C@](CO[C@H]1C[N+]2(CCCOc3ccccc3)CCC1CC2)(c1ccccc1)C1CCCCC1.[Br-]` [Example 8, (2S,3S)-3-[(2-cyclohexyl-2-hydroxyl-2-phenyl)ethoxyl]-1-(3-phenoxypropyl)-1-azabicyclo[2,2,2]octane bromide], in assay [1], the “Onset time” value is 6.72 min and the “Time for eliminating inhibition effect (min)” value is recorded as “more than 300 min”. In assay [2] (setting [4]), the IC50 came out at 2.35 µM. Consider `O[C@](COC1C[N+]2(CCCOc3ccccc3)CCC1CC2)(c1ccccc1)C1CCCCC1.[Br-]` (stereo partly drawn) [Example 9, (2S,3R)-3-[(2-cyclohexyl-2-hydroxyl-2-phenyl)ethoxyl]-1-(3-phenoxypropyl)-1-azabicyclo[2,2,2]octane bromide], for which, in assay [1], the “Onset time” value amounted to 6.13 min and the “Time for eliminating inhibition effect (min)” value is recorded as “more than 300 min”. Further, the IC50 in assay [2] (setting [4]) is 0.758 µM. In the case of `OC(CO[C@H]1C[N+]2(CCCOc3ccccc3)CCC1CC2)(c1ccccc1)C1CCCCC1` (stereo partly drawn) [Example 11, (2R,3S),(2S,3R) Configuration of 3-[(2-cyclohexyl-2-hydroxyl-2-phenyl)ethoxyl]-1-(3-phenoxypropyl)-1-azabicyclo[2,2,2]octane bromide], in assay [1], the “Onset time” value was 6.77 min and the “Time for eliminating inhibition effect (min)” value is listed as “more than 300 min”. In assay [2] (setting [5]), the IC50 stood at 1.36 µM. For `OC(CO[C@H]1C[N+]2(CCCOc3ccccc3)CCC1CC2)(c1ccccc1)C1CCC1` (stereo partly drawn) [Example 13, (2R,3S)-3-[(2-cyclobutyl-2-hydroxyl-2-phenyl)ethoxyl]-1-(3-phenoxypropyl)-1-azabicyclo[2,2,2]octane bromide], in that order: 7.25 min, “more than 300 min” and 0.917 µM. For the compound `OC(CO[C@@H]1C[N+]2(CCCOc3ccccc3)CCC1CC2)(c1ccccc1)C1CCC1.[Br-]` (stereo partly drawn) [Example 15, (2S,3R)-3-[(2-cyclobutyl-2-hydroxyl-2-phenyl)ethoxyl]-1-(3-phenoxypropyl)-1-azabicyclo[2,2,2]octane bromide], in assay [1], the “Onset time” value amounted to 6.29 min and the “Time for eliminating inhibition effect (min)” value is listed as “more than 300 min”. Besides, the IC50 in assay [2] (setting [3]) turned out to be 1.52 µM. Take `OC(CO[C@H]1C[N+]2(CCCOc3ccccc3)CCC1CC2)(c1ccccc1)C1CCC1` (stereo partly drawn) [Example 17, (2R,3S),(2S,3R)-3-[(2-cyclobutyl-2-hydroxyl-2-phenyl)ethoxyl]-1-(3-phenoxypropyl)-1-azabicyclo[2,2,2]octane bromide]: in assay [1], the “Onset time” value is reported as 7.05 min and the “Time for eliminating inhibition effect (min)” value is “more than 300 min”. Besides, the IC50 in assay [2] (setting [6]) came to 1.57 µM. Take `OC(CO[C@H]1C[N+]2(CCCOc3ccccc3)CCC1CC2)(c1ccccc1)C1CCC1` (stereo partly drawn) [Example 18, (2R,3R),(2S,3S)-3-[(2-cyclobutyl-2-hydroxyl-2-phenyl)ethoxyl]-1-(3-phenoxypropyl)-1-azabicyclo[2,2,2]octane bromide]: in assay [1], the “Onset time” value is 6.92 min and the “Time for eliminating inhibition effect (min)” value is “more than 300 min”. For the same compound, the IC50 in assay [2] (setting [6]) turned out to be 0.156 µM. Take `COc1cccc2cccc(C(O)(COC3C[N+]4(CCCOc5ccccc5)CCC3CC4)C3CCCC3)c12` (stereo not drawn) [Example 34]: in assay [2] (setting [7]), the IC50 came out at 0.654 µM. `OC(CCOC1C[N+]2(CCCOc3ccccc3)CCC1CC2)(c1ccccc1)C1CCCC1` (stereo not drawn) [Example 35]: the IC50 in assay [2] (setting [7]) was 0.102 µM. In the case of `CC(=O)OC(COC1C[N+]2(CCCOc3ccccc3)CCC1CC2)(c1ccccc1)C1CCCC1` (stereo not drawn) [Example 36], the IC50 in assay [2] (setting [7]) was 0.068 µM. On to `OC(COC1C[N+]2(CCCOc3ccccc3)CCC1CC2)(c1cccs1)C1CCCC1` (stereo not drawn) [Example 37], for which the IC50 in assay [2] (setting [7]) was 0.0783 µM. With `OC(CCCCCCCOC1C[N+]2(CCCOc3ccccc3)CCC1CC2)(c1ccsc1)C1CCCC1` (stereo not drawn) [Example 38], the IC50 in assay [2] (setting [7]) was 0.0317 µM. The same measure, in the same setting: the same measure for `COC1C[N+]2(CCCOc3ccccc3)CCC1C(OCC(O)(c1ccccc1)C1CCCC1)C2` (stereo not drawn) [Example 39]: 0.045 µM. In the case of `ClC(COC1C[N+]2(CCCOc3ccccc3)CCC1CC2)(c1ccccc1)C1CCCC1` (stereo not drawn) [Example 40], the IC50 in assay [2] (setting [7]) amounted to 0.805 µM. On to `Cc1ccc(OCCC[N+]23CCC(CC2)C(OCC(O)(c2ccccc2)C2CCCC2)C3)cc1` (stereo not drawn) [Example 41], for which, in assay [2] (setting [7]), the IC50 is 0.0562 µM. Same read-out and setting: the same measure for `COc1ccc(OCCC[N+]23CCC(CC2)C(OCC(O)(c2ccccc2)C2CCCC2)C3)cc1` (stereo not drawn) [Example 42]: 0.078 µM; for `CC(Oc1ccccc1)[N+]12CCC(CC1)C(OCC(O)(c1ccccc1)C1CCCC1)C2` (stereo not drawn) [Example 43]: 0.0615 µM. Turning to `CC(C)(Oc1ccccc1)[N+]12CCC(CC1)C(OCC(O)(c1ccccc1)C1CCCC1)C2` (stereo not drawn) [Example 44], in assay [2] (setting [7]), the IC50 stood at 0.147 µM.

`OC(COC1C[N+]2(C3(COc4ccccc4)CCCC3)CCC1CC2)(c1ccccc1)C1CCCC1` (stereo not drawn) [Example 45]: in assay [2] (setting [7]), the IC50 is 0.512 µM. On to `OC(COC1C[N+]2(C3(COc4ccccc4)C=CC=C3)CCC1CC2)(c1ccccc1)C1CCCC1` (stereo not drawn) [Example 46], for which, in assay [2] (setting [7]), the IC50 is 1.23 µM. `CCCCC(O)(COC1C[N+]2(CCCOc3ccccc3)CCC1CC2)c1ccccc1` (stereo not drawn) [Example 47]: the IC50 in assay [2] (setting [7]) was 0.506 µM. As to `OC(COC1C[N+]2(CCCOc3ccccc3)CCC1CC2)(c1ccccc1)C1CCCC1` (stereo not drawn) [Example 48], in assay [2] (read-out: Resistance to the contraction of smooth muscle from guinea pigs in vitro, IC50, 3 × 10^−6 mol/L of CCh, Table 5), the IC50 was 1.18 µM.

For `CC1CCCC1C(O)(COC1C[N+]2(CCCOc3ccccc3)CCC1CC2)c1ccccc1` (stereo not drawn) [Example 49], in assay [2] (setting [7]), the IC50 was found to be 0.045 µM. Take `CC1=CC=CC1C(O)(COC1C[N+]2(CCCOc3ccccc3)CCC1CC2)c1ccccc1` (stereo not drawn) [Example 50]: the IC50 in assay [2] (setting [7]) stood at 0.413 µM. On the same count and under the same terms, the same measure for `COC1C(OCC(O)(c2ccccc2)C2CCCC2)C2CC[N+]1(CCCOc1ccccc1)CC2` (stereo not drawn) [Example 52]: 0.513 µM. On to `OC(COC1C[N+]2(CCCOc3ccccc3)CCC1CC2)(CC1CCCC1)c1ccccc1` (stereo not drawn) [Example 53], for which the IC50 in assay [2] (setting [7]) amounted to 2.17 µM. Take `OC(COC1C[N+]2(CCCOc3ccccc3)CCC1CC2)(c1ccccc1)C1CCCC1` (stereo not drawn) [Example 54]: the IC50 in assay [2] (setting [8]) is 0.0376 µM.

In the case of `OC(COC1C[N+]2(CCCOc3ccccc3)CCC1CC2)(c1ccccc1)C1CCCC1` (stereo not drawn) [Example 55], the IC50 in assay [2] (setting [8]) was found to be 0.0359 µM.
